Measurements published in US7153869B2, “Substituted amino acids as erythropoietin mimetics” (priority 1998, dated 2006).
Where two headings read alike, the source gives them in different places.

Molecular target: T1, EBP-Ig (N-terminal 225 amino acids of the human EPO receptor joined to an Ig heavy chain) (Homo sapiens, UniProt P19235)
T1 construct: Ig heavy chain (fusion partner); made in house; host or cells: NSO cells (secreted into conditioned media)
T1 sequence (P19235 25-250 limits assumed): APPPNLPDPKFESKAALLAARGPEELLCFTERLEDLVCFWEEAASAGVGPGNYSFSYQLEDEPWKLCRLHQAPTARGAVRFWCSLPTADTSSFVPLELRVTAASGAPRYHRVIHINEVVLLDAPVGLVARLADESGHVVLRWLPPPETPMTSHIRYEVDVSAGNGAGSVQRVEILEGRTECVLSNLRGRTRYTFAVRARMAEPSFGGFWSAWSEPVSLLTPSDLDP
Assay: Inhibition of [125I]EPO binding to immobilized EBP-Ig (EPO binding protein-Ig), scintillation Flash plate competition assay
Conditions: for IC30 μM (Inhibition of EPO binding to EBP-Ig) / IC50 / % inh @ 50 μM (Inhibition of EPO binding to EBP-Ig): 0.5 nM [125I]EPO; for IC30 μM (Inhibition of EPO binding to EBP-Ig): 0–500 μM test compound; for IC50: read-out: IC50, μM (Inhibition of EPO binding to EBP-Ig), concentration reducing corrected total binding to 50%; for % inh @ 50 μM (Inhibition of EPO binding to EBP-Ig): 50 μM test compound, average % inhibition

[1] = read-out: % inh @ 50 μM (Inhibition of EPO binding to EBP-Ig)

Row | SMILES | IC30 μM (Inhibition of EPO binding to EBP-Ig) | IC50 | EPO/EBP-Ig % inh @ 50 μM (50 μM compound, Table 16A) | also measured
1 | O=C(O)CCC(=O)NCCCCC(C(=O)NCCOCCOCCNC(=O)C(CCCCNC(=O)CCC(=O)O)N(Cc1ccc(OCc2ccccc2)cc1)Cc1ccc(OCc2ccccc2)cc1)N(Cc1ccc(OCc2ccccc2)cc1)Cc1ccc(OCc2ccccc2)cc1 (stereo not drawn) [compound 262] | 1 µM | 1.5 µM | – | –
2 | O=C(O)CCCC(=O)NCCCCC(C(=O)NCCOCCOCCNC(=O)C(CCCCNC(=O)CCCC(=O)O)N(Cc1ccc(OCc2ccccc2)cc1)Cc1ccc(OCc2ccccc2)cc1)N(Cc1ccc(OCc2ccccc2)cc1)Cc1ccc(OCc2ccccc2)cc1 (stereo not drawn) [compound 263] | 1 µM | 1.5 µM | – | EPO/EBP-Ig % inh @ 50 μM (50 μM compound, Table 13): 88%; % inh @ 50 μM (Inhibition of EPO binding to EBP-Ig): 88%
3 | CC(C)(CC(=O)O)CC(=O)NCCCCC(C(=O)NCCOCCOCCNC(=O)C(CCCCNC(=O)CC(C)(C)CC(=O)O)N(Cc1ccc(OCc2ccccc2)cc1)Cc1ccc(OCc2ccccc2)cc1)N(Cc1ccc(OCc2ccccc2)cc1)Cc1ccc(OCc2ccccc2)cc1 (stereo not drawn) [compound 264] | 1.5 µM | 8 µM | – | EPO/EBP-Ig % inh @ 50 μM (50 μM compound, Table 13): 89%; % inh @ 50 μM (Inhibition of EPO binding to EBP-Ig): 89%
4 | O=C(O)CCC(=O)NCCCCC(C(=O)NCCCOCCCCOCCCNC(=O)C(CCCCNC(=O)CCC(=O)O)N(Cc1ccc(OCc2ccccc2)cc1)Cc1ccc(OCc2ccccc2)cc1)N(Cc1ccc(OCc2ccccc2)cc1)Cc1ccc(OCc2ccccc2)cc1 (stereo not drawn) [compound 265] | 1 µM | 6 µM | – | EPO/EBP-Ig % inh @ 50 μM (50 μM compound, Table 13): 65%; % inh @ 50 μM (Inhibition of EPO binding to EBP-Ig): 65%
5 | O=C(O)CCCC(=O)NCCCCC(C(=O)NCCCOCCCCOCCCNC(=O)C(CCCCNC(=O)CCCC(=O)O)N(Cc1ccc(OCc2ccccc2)cc1)Cc1ccc(OCc2ccccc2)cc1)N(Cc1ccc(OCc2ccccc2)cc1)Cc1ccc(OCc2ccccc2)cc1 (stereo not drawn) [compound 266] | 1 µM | 4 µM | – | EPO/EBP-Ig % inh @ 50 μM (50 μM compound, Table 13): 82%; % inh @ 50 μM (Inhibition of EPO binding to EBP-Ig): 82%
6 | CC(C)(CC(=O)O)CC(=O)NCCCCC(C(=O)NCCCOCCCCOCCCNC(=O)C(CCCCNC(=O)CC(C)(C)CC(=O)O)N(Cc1ccc(OCc2ccccc2)cc1)Cc1ccc(OCc2ccccc2)cc1)N(Cc1ccc(OCc2ccccc2)cc1)Cc1ccc(OCc2ccccc2)cc1 (stereo not drawn) [compound 267] | 2 µM | 6 µM | – | EPO/EBP-Ig % inh @ 50 μM (50 μM compound, Table 13): 83%; % inh @ 50 μM (Inhibition of EPO binding to EBP-Ig): 83%
7 | CC(C)(CC(=O)O)CC(=O)NCCCCC(C(=O)NCCCCCCCCCCCCNC(=O)C(CCCCNC(=O)CC(C)(C)CC(=O)O)N(Cc1ccc(OCc2ccccc2)cc1)Cc1ccc(OCc2ccccc2)cc1)N(Cc1ccc(OCc2ccccc2)cc1)Cc1ccc(OCc2ccccc2)cc1 (stereo not drawn) [compound 268] | – | – | – | EPO/EBP-Ig % inh @ 50 μM (50 μM compound, Table 13): 40%; % inh @ 50 μM (Inhibition of EPO binding to EBP-Ig): 40%
8 | O=C(O)CCCC(=O)NCCCCC(C(=O)NCCCCCCCCCCCCNC(=O)C(CCCCNC(=O)CCCC(=O)O)N(Cc1ccc(OCc2ccccc2)cc1)Cc1ccc(OCc2ccccc2)cc1)N(Cc1ccc(OCc2ccccc2)cc1)Cc1ccc(OCc2ccccc2)cc1 (stereo not drawn) [compound 269] | 8 µM | 85 µM | – | –
9 | O=C(O)CCC(=O)NCCCCC(C(=O)NCCCCCCCCCCCCNC(=O)C(CCCCNC(=O)CCC(=O)O)N(Cc1ccc(OCc2ccccc2)cc1)Cc1ccc(OCc2ccccc2)cc1)N(Cc1ccc(OCc2ccccc2)cc1)Cc1ccc(OCc2ccccc2)cc1 (stereo not drawn) [compound 270] | 7 µM | 100 µM | – | EPO/EBP-Ig % inh @ 50 μM (50 μM compound, Table 13): 56%; % inh @ 50 μM (Inhibition of EPO binding to EBP-Ig): 56%
10 | O=C(O)CCC(=O)NCCCCC(C(=O)NCCCOCCOCCOCCCNC(=O)C(CCCCNC(=O)CCC(=O)O)N(Cc1ccc(OCc2ccccc2)cc1)Cc1ccc(OCc2ccccc2)cc1)N(Cc1ccc(OCc2ccccc2)cc1)Cc1ccc(OCc2ccccc2)cc1 (stereo not drawn) [compound 271] | 2 µM | 7 µM | – | EPO/EBP-Ig % inh @ 50 μM (50 μM compound, Table 13): 77%; % inh @ 50 μM (Inhibition of EPO binding to EBP-Ig): 77%
11 | O=C(O)CCCC(=O)NCCCCC(C(=O)NCCCOCCOCCOCCCNC(=O)C(CCCCNC(=O)CCCC(=O)O)N(Cc1ccc(OCc2ccccc2)cc1)Cc1ccc(OCc2ccccc2)cc1)N(Cc1ccc(OCc2ccccc2)cc1)Cc1ccc(OCc2ccccc2)cc1 (stereo not drawn) [compound 272] | 5 µM | 10 µM | – | –
12 | NCCCCC(C(=O)O)N(Cc1cccc(Oc2ccccc2)c1)C(=O)C=Cc1cccc(OCc2ccccc2)c1 (stereo not drawn) [compound 286] | 35 µM | 65 µM | – | inhibition at 50 µM [1]: 46%; inhibition at 50 µM (read-out: EPO/EBP-Ig % inh @ 50 μM, 50 μM compound, Table 15): 46%
13 | Cc1ccc(Oc2cccc(/C=C/C(=O)N(Cc3cccc(Oc4ccccc4)c3)C(CCCCN)C(=O)O)c2)cc1 (stereo not drawn) [compound 287] | – | – | – | EPO/EBP-Ig % inh @ 50 μM (50 μM compound, Table 15): 36%; % inh @ 50 μM (Inhibition of EPO binding to EBP-Ig): 36%
14 | CC(C)(C)c1ccc(Oc2cccc(/C=C/C(=O)N(Cc3cccc(Oc4ccccc4)c3)C(CCCCN)C(=O)O)c2)cc1 (stereo not drawn) [compound 288] | – | – | – | EPO/EBP-Ig % inh @ 50 μM (50 μM compound, Table 15): 27%
15 | NCCCCC(C(=O)O)N(Cc1cccc(Oc2ccccc2)c1)C(=O)/C=C/c1ccc(Oc2ccccc2)cc1 (stereo not drawn) [compound 289] | – | – | – | EPO/EBP-Ig % inh @ 50 μM (50 μM compound, Table 15): 20%
16 | COC(=O)[C@H](COC(C)(C)C)N(C/C=C/c1ccc(-c2ccccc2)cc1)C/C=C/c1ccc(-c2ccccc2)cc1 [compound 291] | – | – | 17% | –
17 | COC(=O)[C@H](COC(C)(C)C)N(C/C=C/c1cccc(Oc2cccc(C(F)(F)F)c2)c1)C/C=C/c1cccc(Oc2cccc(C(F)(F)F)c2)c1 [compound 292] | – | – | 11% | –
18 | COC(=O)[C@H](COC(C)(C)C)N(C/C=C/c1cccc(Oc2ccc(Cl)c(Cl)c2)c1)C/C=C/c1cccc(Oc2ccc(Cl)c(Cl)c2)c1 [compound 293] | – | – | 14% | –
19 | COC(=O)[C@H](COC(C)(C)C)N(C/C=C/c1cccc(Oc2ccc(C(C)(C)C)cc2)c1)C/C=C/c1cccc(Oc2ccc(C(C)(C)C)cc2)c1 [compound 294] | – | – | 9% | –

Row | SMILES | IC30 μM (Inhibition of EPO binding to EBP-Ig) | IC50 | EPO/EBP-Ig % inh @ 50 μM (50 μM compound, Table 16A) | also measured
20 | CC(=O)O.COC(=O)[C@H](CO)N(C/C=C/c1ccc(-c2ccccc2)cc1)C/C=C/c1ccc(-c2ccccc2)cc1 [compound 295] | – | – | 10% | –
21 | CC(=O)O.COC(=O)[C@H](CO)N(C/C=C/c1cccc(Oc2ccc(Cl)c(Cl)c2)c1)C/C=C/c1cccc(Oc2ccc(Cl)c(Cl)c2)c1 [compound 296] | – | – | 0% | –
22 | CC(=O)O.COC(=O)[C@H](CO)N(C/C=C/c1cccc(Oc2cccc(C(F)(F)F)c2)c1)C/C=C/c1cccc(Oc2cccc(C(F)(F)F)c2)c1 [compound 297] | – | – | 0% | –
23 | CC(=O)O.COC(=O)[C@H](CO)N(C/C=C/c1cccc(Oc2ccc(C(C)(C)C)cc2)c1)C/C=C/c1cccc(Oc2ccc(C(C)(C)C)cc2)c1 [compound 298] | – | – | 1% | –
24 | CC(C)(C)OC[C@@H](C(=O)O)N(C/C=C/c1ccc(-c2ccccc2)cc1)C/C=C/c1ccc(-c2ccccc2)cc1 [compound 301] | – | – | 25% | –
25 | CC(C)(C)OC[C@@H](C(=O)O)N(C/C=C/c1cccc(Oc2ccc(Cl)c(Cl)c2)c1)C/C=C/c1cccc(Oc2ccc(Cl)c(Cl)c2)c1 [compound 302] | – | – | 30% | –
26 | CC(C)(C)OC[C@@H](C(=O)O)N(C/C=C/c1cccc(Oc2cccc(C(F)(F)F)c2)c1)C/C=C/c1cccc(Oc2cccc(C(F)(F)F)c2)c1 [compound 303] | – | – | 21% | –
27 | CC(C)(C)OC[C@@H](C(=O)O)N(C/C=C/c1cccc(Oc2ccc(C(C)(C)C)cc2)c1)C/C=C/c1cccc(Oc2ccc(C(C)(C)C)cc2)c1 [compound 304] | – | – | 19% | –
28 | O=C(O)C(CO)N(CC=Cc1ccc(-c2ccccc2)cc1)CC=Cc1ccc(-c2ccccc2)cc1 (stereo not drawn) [compound 305] | 35 µM | 225 µM | – | inhibition at 50 µM [1]: 48%; inhibition at 50 µM (read-out: EPO/EBP-Ig % inh @ 50 μM, 50 μM compound, Table 16A): 48%
29 | COC(=O)[C@H](COC(C)(C)C)N(C/C=C/c1ccccc1)C/C=C/c1ccccc1 [compound 306] | – | – | 21% | –
30 | O=C(O)C(F)(F)F.O=C(O)[C@H](CO)N(C/C=C/c1cccc(Oc2ccc(Cl)c(Cl)c2)c1)C/C=C/c1cccc(Oc2ccc(Cl)c(Cl)c2)c1 [compound 307] | – | – | 25% | –
31 | O=C(O)C(F)(F)F.O=C(O)[C@H](CO)N(C/C=C/c1cccc(Oc2cccc(C(F)(F)F)c2)c1)C/C=C/c1cccc(Oc2cccc(C(F)(F)F)c2)c1 [compound 308] | – | – | 25% | –
32 | CC(C)(C)c1ccc(Oc2cccc(/C=C/CN(C/C=C/c3cccc(Oc4ccc(C(C)(C)C)cc4)c3)[C@@H](CO)C(=O)O)c2)cc1.O=C(O)C(F)(F)F [compound 309] | – | – | 13% | –
33 | CC(=O)O.COC(=O)[C@H](CO)N(C/C=C/c1ccccc1)C/C=C/c1ccccc1 [compound 310] | – | – | 34% | –
34 | CC(C)(C)OC(=O)CN(C/C=C/c1cccc(Oc2ccccc2)c1)C/C=C/c1cccc(Oc2ccccc2)c1 [compound 311] | – | – | – | EPO/EBP-Ig % inh @ 50 μM (50 μM compound, Table 17A): 5.3%
35 | O=C(O)CN(C/C=C/c1cccc(Oc2ccccc2)c1)C/C=C/c1cccc(Oc2ccccc2)c1 [compound 312] | 10 µM | 85 µM | – | inhibition at 50 µM [1]: 45%; inhibition at 50 µM (read-out: EPO/EBP-Ig % inh @ 50 μM, 50 μM compound, Table 17A): 45%
36 | O=C(NCCCC[C@H](NC/C=C/c1ccc(C(F)(F)F)cc1)C(=O)O)OCc1ccccc1Cl.O=C(O)C(F)(F)F [compound 313] | – | – | – | EPO/EBP-Ig % inh @ 50 μM (50 μM compound, Table 18A): 28%
37 | COC(=O)[C@H](CCCCN)NC/C=C/c1ccc(C(=O)O)cc1 [compound 314] | – | – | – | EPO/EBP-Ig % inh @ 50 μM (50 μM compound, Table 18A): 12%
